From US20220348565A1, “PHARMACEUTICAL COMPOUNDS” (SENTINEL ONCOLOGY LIMITED, priority 2019, published 2022)

Tests used:
Assay in all cases: DiscoverX KinomeScreen kinase selectivity competition binding assay
[1] = target: T1, panel of ninety-seven kinases (Homo sapiens, UniProt O15111); settings: CHUK; read-out: % Ctrl @ 3 μM
T1 construct: purchased DiscoverX; host or cells: T7 phage in E. coli (BL21-derived) for most kinases; HEK-293 for the rest
Procedure, shortened: (§1)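 Site-directed competition binding: kinase (T7 phage-tagged or HEK-293-expressed, DNA-tagged) captured on immobilized biotinylated ligand beads, with compound at 3000 nM. Bound kinase eluted and quantified by qPCR. Reported as % Ctrl, with DMSO as 100% and control compound as 0%.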

[2] = target: T2, panel of ninety-seven kinases (Homo sapiens, UniProt P07333); settings: CSF1R; read-out: % Ctrl @ 3 μM
T2 construct: purchased DiscoverX; host or cells: T7 phage in E. coli (BL21-derived) for most kinases; HEK-293 for the rest
Procedure, shortened: as §1

[3] = target: T3, panel of ninety-seven kinases (Homo sapiens, UniProt P07949); settings: RET; read-out: % Ctrl @ 3 μM
T3 construct: purchased DiscoverX; host or cells: T7 phage in E. coli (BL21-derived) for most kinases; HEK-293 for the rest
Procedure, shortened: as §1

[4] = target: T4, panel of ninety-seven kinases (Homo sapiens, UniProt P24941); settings: CDK2; read-out: % Ctrl @ 3 μM
T4 construct: purchased DiscoverX; host or cells: T7 phage in E. coli (BL21-derived) for most kinases; HEK-293 for the rest
Procedure, shortened: as §1

[5] = target: T5, panel of ninety-seven kinases (Homo sapiens, UniProt P29317); settings: EPHA2; read-out: % Ctrl @ 3 μM
T5 construct: purchased DiscoverX; host or cells: T7 phage in E. coli (BL21-derived) for most kinases; HEK-293 for the rest
Procedure, shortened: as §1

[6] = target: T6, panel of ninety-seven kinases (Homo sapiens, UniProt P29597); settings: TYK2; read-out: % Ctrl @ 3 μM
T6 construct: purchased DiscoverX; host or cells: T7 phage in E. coli (BL21-derived) for most kinases; HEK-293 for the rest
Procedure, shortened: as §1

[7] = target: T7, panel of ninety-seven kinases (Homo sapiens, UniProt P31751); settings: AKT2; read-out: % Ctrl @ 3 μM
T7 construct: purchased DiscoverX; host or cells: T7 phage in E. coli (BL21-derived) for most kinases; HEK-293 for the rest
Procedure, shortened: as §1

[8] = target: T8, panel of ninety-seven kinases (Homo sapiens, UniProt P36888); settings: FLT3; read-out: % Ctrl @ 3 μM
T8 construct: purchased DiscoverX; host or cells: T7 phage in E. coli (BL21-derived) for most kinases; HEK-293 for the rest
Procedure, shortened: as §1

[9] = target: T9, panel of ninety-seven kinases (Homo sapiens, UniProt P36896); settings: ACVR1B; read-out: % Ctrl @ 3 μM
T9 construct: purchased DiscoverX; host or cells: T7 phage in E. coli (BL21-derived) for most kinases; HEK-293 for the rest
Procedure, shortened: as §1

[10] = target: T10, panel of ninety-seven kinases (Homo sapiens, UniProt P50613); settings: CDK7; read-out: % Ctrl @ 3 μM
T10 construct: purchased DiscoverX; host or cells: T7 phage in E. coli (BL21-derived) for most kinases; HEK-293 for the rest
Procedure, shortened: as §1

[11] = target: T11, panel of ninety-seven kinases (Homo sapiens, UniProt P51812); settings: RPS6KA3; read-out: % Ctrl @ 3 μM
T11 construct: purchased DiscoverX; host or cells: T7 phage in E. coli (BL21-derived) for most kinases; HEK-293 for the rest
Procedure, shortened: as §1

[12] = target: T12, panel of ninety-seven kinases (Homo sapiens, UniProt P52333); settings: JAK3; read-out: % Ctrl @ 3 μM
T12 construct: purchased DiscoverX; host or cells: T7 phage in E. coli (BL21-derived) for most kinases; HEK-293 for the rest
Procedure, shortened: as §1

[13] = target: T13, panel of ninety-seven kinases (Homo sapiens, UniProt P80192); settings: MAP3K9; read-out: % Ctrl @ 3 μM
T13 construct: purchased DiscoverX; host or cells: T7 phage in E. coli (BL21-derived) for most kinases; HEK-293 for the rest
Procedure, shortened: as §1

[14] = target: T14, panel of ninety-seven kinases (Homo sapiens, UniProt Q02750); settings: MAP2K1; read-out: % Ctrl @ 3 μM
T14 construct: purchased DiscoverX; host or cells: T7 phage in E. coli (BL21-derived) for most kinases; HEK-293 for the rest
Procedure, shortened: as §1

[15] = target: T15, panel of ninety-seven kinases (Homo sapiens, UniProt Q15759); settings: MAPK11; read-out: % Ctrl @ 3 μM
T15 construct: purchased DiscoverX; host or cells: T7 phage in E. coli (BL21-derived) for most kinases; HEK-293 for the rest
Procedure, shortened: as §1

[16] = target: T16, panel of ninety-seven kinases (Homo sapiens, UniProt Q16539); settings: MAPK14; read-out: % Ctrl @ 3 μM
T16 construct: purchased DiscoverX; host or cells: T7 phage in E. coli (BL21-derived) for most kinases; HEK-293 for the rest
Procedure, shortened: as §1

[17] = target: T17, panel of ninety-seven kinases (Homo sapiens, UniProt Q86UX6); settings: STK32C; read-out: % Ctrl @ 3 μM
T17 construct: purchased DiscoverX; host or cells: T7 phage in E. coli (BL21-derived) for most kinases; HEK-293 for the rest
Procedure, shortened: as §1

[18] = target: T18, panel of ninety-seven kinases (Homo sapiens, UniProt Q9H4B4); settings: PLK3; read-out: % Ctrl @ 3 μM
T18 construct: purchased DiscoverX; host or cells: T7 phage in E. coli (BL21-derived) for most kinases; HEK-293 for the rest
Procedure, shortened: as §1

[19] = target: T19, panel of ninety-seven kinases (Homo sapiens, UniProt Q9HBH9); settings: MKNK2; read-out: % Ctrl @ 3 μM
T19 construct: purchased DiscoverX; host or cells: T7 phage in E. coli (BL21-derived) for most kinases; HEK-293 for the rest
Procedure, shortened: as §1

[20] = target: T20, panel of ninety-seven kinases (Homo sapiens, UniProt Q9Y6R4); settings: MAP3K4; read-out: % Ctrl @ 3 μM
T20 construct: purchased DiscoverX; host or cells: T7 phage in E. coli (BL21-derived) for most kinases; HEK-293 for the rest
Procedure, shortened: as §1

[21] = tested on: panel of ninety-seven kinases
Procedure, shortened: as §1

T15 sequence (Q15759 whole entry): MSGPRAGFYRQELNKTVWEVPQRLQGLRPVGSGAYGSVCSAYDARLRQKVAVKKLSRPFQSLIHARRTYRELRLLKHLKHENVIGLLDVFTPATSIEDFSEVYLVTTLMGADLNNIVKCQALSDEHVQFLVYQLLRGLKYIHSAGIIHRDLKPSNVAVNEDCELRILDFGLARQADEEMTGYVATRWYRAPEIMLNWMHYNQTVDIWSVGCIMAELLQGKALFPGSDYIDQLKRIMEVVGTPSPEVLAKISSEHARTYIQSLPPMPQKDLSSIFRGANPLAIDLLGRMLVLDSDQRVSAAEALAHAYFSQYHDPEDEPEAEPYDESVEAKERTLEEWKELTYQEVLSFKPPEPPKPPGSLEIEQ
T1 sequence (O15111 whole entry): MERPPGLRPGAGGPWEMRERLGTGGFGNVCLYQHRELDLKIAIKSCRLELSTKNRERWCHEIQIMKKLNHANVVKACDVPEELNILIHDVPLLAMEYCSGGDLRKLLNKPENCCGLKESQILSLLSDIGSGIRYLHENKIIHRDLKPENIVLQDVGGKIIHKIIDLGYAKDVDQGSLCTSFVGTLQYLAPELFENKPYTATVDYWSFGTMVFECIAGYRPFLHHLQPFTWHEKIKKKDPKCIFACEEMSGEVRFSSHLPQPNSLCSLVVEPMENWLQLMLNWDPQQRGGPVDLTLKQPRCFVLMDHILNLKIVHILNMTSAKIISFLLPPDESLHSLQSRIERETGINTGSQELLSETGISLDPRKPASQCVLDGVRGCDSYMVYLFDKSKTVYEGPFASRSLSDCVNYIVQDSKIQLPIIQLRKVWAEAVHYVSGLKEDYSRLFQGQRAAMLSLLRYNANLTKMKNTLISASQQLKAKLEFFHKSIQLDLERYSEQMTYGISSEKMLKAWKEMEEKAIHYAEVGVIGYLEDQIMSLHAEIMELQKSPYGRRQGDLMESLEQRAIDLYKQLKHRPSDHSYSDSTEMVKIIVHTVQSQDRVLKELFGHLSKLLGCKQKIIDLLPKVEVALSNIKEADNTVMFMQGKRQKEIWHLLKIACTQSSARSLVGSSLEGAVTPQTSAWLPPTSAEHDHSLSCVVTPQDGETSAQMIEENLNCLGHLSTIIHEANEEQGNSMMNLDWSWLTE
T3 sequence (P07949 29-1114): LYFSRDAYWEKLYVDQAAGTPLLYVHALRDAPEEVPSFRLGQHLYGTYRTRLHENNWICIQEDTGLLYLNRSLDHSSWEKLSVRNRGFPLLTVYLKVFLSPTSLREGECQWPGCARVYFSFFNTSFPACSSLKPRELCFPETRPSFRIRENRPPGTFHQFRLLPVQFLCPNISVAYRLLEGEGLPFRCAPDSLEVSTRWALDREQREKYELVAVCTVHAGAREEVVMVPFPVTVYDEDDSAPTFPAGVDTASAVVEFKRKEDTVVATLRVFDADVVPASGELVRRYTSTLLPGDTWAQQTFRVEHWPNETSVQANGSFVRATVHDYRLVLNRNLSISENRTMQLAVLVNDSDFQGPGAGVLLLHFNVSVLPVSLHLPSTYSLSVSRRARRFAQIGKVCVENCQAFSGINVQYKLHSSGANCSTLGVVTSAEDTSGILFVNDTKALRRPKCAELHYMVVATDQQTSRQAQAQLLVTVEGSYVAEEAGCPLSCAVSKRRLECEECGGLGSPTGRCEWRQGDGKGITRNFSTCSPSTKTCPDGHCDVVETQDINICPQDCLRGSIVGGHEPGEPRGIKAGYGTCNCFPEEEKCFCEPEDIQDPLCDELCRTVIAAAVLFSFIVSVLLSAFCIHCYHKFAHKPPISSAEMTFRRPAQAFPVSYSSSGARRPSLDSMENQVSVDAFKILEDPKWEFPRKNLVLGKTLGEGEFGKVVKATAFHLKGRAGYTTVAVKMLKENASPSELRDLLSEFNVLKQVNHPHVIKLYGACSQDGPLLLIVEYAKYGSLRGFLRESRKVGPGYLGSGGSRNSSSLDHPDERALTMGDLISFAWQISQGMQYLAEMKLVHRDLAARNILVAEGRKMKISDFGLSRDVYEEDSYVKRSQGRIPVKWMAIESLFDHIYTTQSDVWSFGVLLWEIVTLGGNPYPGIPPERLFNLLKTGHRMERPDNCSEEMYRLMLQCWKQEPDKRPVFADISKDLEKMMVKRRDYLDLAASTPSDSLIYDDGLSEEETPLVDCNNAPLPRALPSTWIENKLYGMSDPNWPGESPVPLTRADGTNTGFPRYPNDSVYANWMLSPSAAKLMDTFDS
T12 sequence (P52333 whole entry): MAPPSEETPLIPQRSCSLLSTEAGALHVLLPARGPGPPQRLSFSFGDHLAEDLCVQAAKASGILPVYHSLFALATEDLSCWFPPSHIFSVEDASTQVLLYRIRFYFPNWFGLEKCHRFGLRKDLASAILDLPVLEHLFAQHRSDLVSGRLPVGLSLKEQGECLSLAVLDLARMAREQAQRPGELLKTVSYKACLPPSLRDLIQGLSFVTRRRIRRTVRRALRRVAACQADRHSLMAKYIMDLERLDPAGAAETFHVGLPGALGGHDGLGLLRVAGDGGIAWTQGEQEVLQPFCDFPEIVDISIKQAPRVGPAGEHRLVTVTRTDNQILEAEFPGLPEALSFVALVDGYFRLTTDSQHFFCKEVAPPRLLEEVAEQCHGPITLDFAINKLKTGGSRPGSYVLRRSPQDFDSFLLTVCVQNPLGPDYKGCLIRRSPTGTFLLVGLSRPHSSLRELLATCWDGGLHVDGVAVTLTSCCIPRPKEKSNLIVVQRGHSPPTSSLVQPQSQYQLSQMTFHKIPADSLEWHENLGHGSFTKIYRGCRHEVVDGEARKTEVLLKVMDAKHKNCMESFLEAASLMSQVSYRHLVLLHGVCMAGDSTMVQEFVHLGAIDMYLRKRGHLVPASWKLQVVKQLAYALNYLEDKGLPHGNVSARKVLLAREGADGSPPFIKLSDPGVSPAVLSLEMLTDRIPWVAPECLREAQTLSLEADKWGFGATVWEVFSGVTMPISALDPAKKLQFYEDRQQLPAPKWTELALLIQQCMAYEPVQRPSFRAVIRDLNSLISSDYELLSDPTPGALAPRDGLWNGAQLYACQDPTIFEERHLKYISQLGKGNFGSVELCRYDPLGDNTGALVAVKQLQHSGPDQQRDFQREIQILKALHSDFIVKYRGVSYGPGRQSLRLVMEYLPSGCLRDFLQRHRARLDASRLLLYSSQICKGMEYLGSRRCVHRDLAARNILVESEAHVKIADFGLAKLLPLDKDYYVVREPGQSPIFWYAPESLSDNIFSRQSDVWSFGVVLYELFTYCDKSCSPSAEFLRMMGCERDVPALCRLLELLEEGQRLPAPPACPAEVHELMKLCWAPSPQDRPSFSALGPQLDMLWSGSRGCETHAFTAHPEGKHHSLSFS
T17 sequence (Q86UX6 whole entry): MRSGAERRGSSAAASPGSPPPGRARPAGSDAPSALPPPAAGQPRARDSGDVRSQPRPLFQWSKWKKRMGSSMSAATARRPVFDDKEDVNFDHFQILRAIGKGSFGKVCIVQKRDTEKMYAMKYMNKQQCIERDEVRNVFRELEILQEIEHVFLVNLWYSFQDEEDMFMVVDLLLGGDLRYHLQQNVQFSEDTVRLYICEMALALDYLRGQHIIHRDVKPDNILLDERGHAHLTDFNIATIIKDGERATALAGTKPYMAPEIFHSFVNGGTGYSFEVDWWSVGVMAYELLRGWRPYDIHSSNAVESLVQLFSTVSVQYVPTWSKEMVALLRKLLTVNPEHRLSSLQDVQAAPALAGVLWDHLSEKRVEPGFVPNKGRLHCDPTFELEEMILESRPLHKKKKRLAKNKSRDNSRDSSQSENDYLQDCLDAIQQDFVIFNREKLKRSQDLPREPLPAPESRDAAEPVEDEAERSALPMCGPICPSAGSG
T8 sequence (P36888 27-993): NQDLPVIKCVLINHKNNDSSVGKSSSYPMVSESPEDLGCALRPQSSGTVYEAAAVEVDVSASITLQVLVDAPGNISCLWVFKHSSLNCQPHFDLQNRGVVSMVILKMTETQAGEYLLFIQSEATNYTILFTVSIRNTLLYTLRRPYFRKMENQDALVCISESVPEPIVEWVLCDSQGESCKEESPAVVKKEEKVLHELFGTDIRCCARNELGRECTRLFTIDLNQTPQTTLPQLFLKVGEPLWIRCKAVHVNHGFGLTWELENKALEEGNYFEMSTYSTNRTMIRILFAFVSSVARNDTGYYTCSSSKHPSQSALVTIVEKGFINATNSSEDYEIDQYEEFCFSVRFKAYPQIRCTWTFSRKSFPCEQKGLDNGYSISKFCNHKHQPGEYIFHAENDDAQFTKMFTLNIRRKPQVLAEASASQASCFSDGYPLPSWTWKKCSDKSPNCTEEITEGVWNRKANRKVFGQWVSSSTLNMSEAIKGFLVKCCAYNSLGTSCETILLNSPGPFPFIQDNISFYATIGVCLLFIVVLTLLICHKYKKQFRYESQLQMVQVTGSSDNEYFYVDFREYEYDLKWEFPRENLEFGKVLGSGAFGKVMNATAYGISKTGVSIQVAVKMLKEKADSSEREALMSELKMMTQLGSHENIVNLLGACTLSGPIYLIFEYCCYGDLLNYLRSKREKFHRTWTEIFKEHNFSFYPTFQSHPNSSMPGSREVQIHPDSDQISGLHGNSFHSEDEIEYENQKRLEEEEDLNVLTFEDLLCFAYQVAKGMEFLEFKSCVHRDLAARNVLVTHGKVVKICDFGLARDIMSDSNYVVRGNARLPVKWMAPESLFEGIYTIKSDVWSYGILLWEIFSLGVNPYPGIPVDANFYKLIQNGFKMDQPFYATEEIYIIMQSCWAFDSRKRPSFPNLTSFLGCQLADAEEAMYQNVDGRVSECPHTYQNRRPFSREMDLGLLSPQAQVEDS

CN(C)CCNC(=O)c1ccc(-c2ccc(-c3ccc(Cl)cc3)n2-c2ccccc2C(F)(F)F)cc1 (single isomer, unassigned) [Atropisomer A-2, 4-[5-(4-chlorophenyl)-1-[2-(trifluoromethyl)phenyl]pyrrol-2-yl]-N-[2-(dimethylamino)ethyl]benzamide]
percent of control kinase binding to immobilized ligand at 3 µM [1]: 100% | percent of control kinase binding to immobilized ligand at 3 µM [2]: 100% | percent of control kinase binding to immobilized ligand at 3 µM [3]: 95% | percent of control kinase binding to immobilized ligand at 3 µM [4]: 94% | percent of control kinase binding to immobilized ligand at 3 µM [5]: 100% | percent of control kinase binding to immobilized ligand at 3 µM [6]: 100% | percent of control kinase binding to immobilized ligand at 3 µM [7]: 100% | percent of control kinase binding to immobilized ligand at 3 µM [8]: 100% | percent of control kinase binding to immobilized ligand at 3 µM [9]: 96% | percent of control kinase binding to immobilized ligand at 3 µM [10]: 100% | percent of control kinase binding to immobilized ligand at 3 µM [11]: 100% | percent of control kinase binding to immobilized ligand at 3 µM [12]: 100% | percent of control kinase binding to immobilized ligand at 3 µM [13]: 96% | percent of control kinase binding to immobilized ligand at 3 µM [14]: 84% | percent of control kinase binding to immobilized ligand at 3 µM [15]: 99% | percent of control kinase binding to immobilized ligand at 3 µM [16]: 100% | percent of control kinase binding to immobilized ligand at 3 µM [17]: 100% | percent of control kinase binding to immobilized ligand at 3 µM [18]: 87% | percent of control kinase binding to immobilized ligand at 3 µM [19]: 85% | percent of control kinase binding to immobilized ligand at 3 µM [20]: 93% | % Ctrl @ 3 μM ([21]; EGFR (variants not told apart)): 100% | % Ctrl @ 3 μM ([21]; KIT (three lines, variants not told apart)): 100% | binding activity against panel kinases (in words) ([21]; ninety-seven kinases, 3 μM): poor or non-existent binding activity
